Tests used:
[1] = biological target: T1, Mtb-FbiA (Mycobacterium tuberculosis, UniProt P9WP81)
[2] = biological target: T2, Mtb-FbiD (Mycobacterium tuberculosis, UniProt P9WP83)
[3] = biological target: T3, Mtb-FbiB (Mycobacterium tuberculosis, UniProt P9WP79)
[4] = biological target: T2, Mtb-FbiD; remark: listed apart in the source
[5] = biological target: T4, Mj-CofC (Methanocaldococcus jannaschii, UniProt Q58297); assay: coupled HPLC-MS assay with Mtb-FbiA; assay type: biochemical; details: Mtb-FbiA present, 1 mM PEP, 2 mM GTP, 0.1 mM Fo, 5 mM MgCl2, pH 7.5, 37 °C
T4 construct: synthetic ORF in pYUB28b, expressed in E. coli, Ni-NTA and SEC
T4 sequence (Q58297 1-224): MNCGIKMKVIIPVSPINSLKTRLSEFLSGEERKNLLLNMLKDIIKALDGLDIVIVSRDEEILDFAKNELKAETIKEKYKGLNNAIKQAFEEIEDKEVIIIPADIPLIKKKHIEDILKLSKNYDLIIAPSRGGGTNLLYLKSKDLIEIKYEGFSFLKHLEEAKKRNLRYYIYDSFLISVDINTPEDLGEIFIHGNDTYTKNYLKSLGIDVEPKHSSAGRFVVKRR

[6] = biological target: T3, Mtb-FbiB; remark: listed apart in the source
[7] = biological target: T1, Mtb-FbiA; remark: listed apart in the source

T3 sequence (P9WP79 whole entry): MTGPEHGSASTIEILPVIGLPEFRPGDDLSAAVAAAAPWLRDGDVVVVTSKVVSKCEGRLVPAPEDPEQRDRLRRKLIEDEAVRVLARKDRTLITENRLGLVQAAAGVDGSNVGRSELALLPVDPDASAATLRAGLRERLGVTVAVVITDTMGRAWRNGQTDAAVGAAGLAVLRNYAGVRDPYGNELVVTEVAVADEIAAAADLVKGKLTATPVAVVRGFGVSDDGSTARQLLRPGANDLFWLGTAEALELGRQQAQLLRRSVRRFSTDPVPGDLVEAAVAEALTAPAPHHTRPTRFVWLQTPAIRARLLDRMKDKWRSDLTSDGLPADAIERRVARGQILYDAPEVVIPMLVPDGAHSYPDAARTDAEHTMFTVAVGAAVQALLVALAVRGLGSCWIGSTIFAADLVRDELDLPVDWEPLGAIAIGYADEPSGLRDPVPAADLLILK
T1 sequence (P9WP81 whole entry): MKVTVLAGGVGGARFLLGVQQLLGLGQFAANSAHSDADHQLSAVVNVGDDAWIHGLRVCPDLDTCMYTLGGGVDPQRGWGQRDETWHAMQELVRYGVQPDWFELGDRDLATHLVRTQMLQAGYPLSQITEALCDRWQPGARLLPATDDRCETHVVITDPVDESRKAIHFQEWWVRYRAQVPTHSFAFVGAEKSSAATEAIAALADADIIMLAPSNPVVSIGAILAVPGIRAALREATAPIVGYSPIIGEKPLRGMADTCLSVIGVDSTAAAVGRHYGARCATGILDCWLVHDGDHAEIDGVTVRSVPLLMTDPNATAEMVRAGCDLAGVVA
T2 sequence (P9WP83 whole entry): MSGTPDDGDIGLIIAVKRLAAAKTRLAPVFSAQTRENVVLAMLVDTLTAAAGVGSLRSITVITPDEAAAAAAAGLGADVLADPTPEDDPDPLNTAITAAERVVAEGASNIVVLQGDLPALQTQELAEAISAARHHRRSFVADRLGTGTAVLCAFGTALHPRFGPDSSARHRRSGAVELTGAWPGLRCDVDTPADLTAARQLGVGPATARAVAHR

O=c1nc2n(C[C@H](O)[C@H](O)[C@H](O)CO)c3cc(O)ccc3cc-2c(=O)[nH]1 [Fo, 7,8-didemethyl-8-hydroxy-5-deazariboflavin]
coupled HPLC-MS assay with FbiD or CofC [1]: when these enzymes were incubated with PEP, GTP (or ATP), and Fo

Nc1nc2c(ncn2[C@@H]2O[C@H](COP(=O)(O)OP(=O)(O)OP(=O)(O)O)[C@@H](O)[C@H]2O)c(=O)[nH]1 [GTP, guanosine-5ʹ-triphosphate]
coupled HPLC-MS assay with FbiA [2]: Mtb-FbiD exclusively utilizes GTP to produce dehydro-F420-0

N[C@@H](CCC(=O)O)C(=O)O [L-glutamate]
coupled FbiD:FbiA:FbiB assay, LC-MS [3]: Mtb-FbiB was observed to catalyze the addition of L-glutamate residues to dehydro-F420-0

C=C(OP(=O)(O)O)C(=O)O [PEP, phosphoenolpyruvate]
X-ray crystal structure, soak, 2.18 Å [4]: We also soaked PEP into pre-formed FbiD crystals to obtain an FbiD-PEP complex
coupled HPLC-MS assay with Mtb-FbiA [5]: both Mtb-FbiD and CofC from Methanocaldococcus jannaschii (Mj-CofC) enzymes use PEP to produce dehydro-F420-0

C=C(OP(=O)(O)OC[C@@H](O)[C@@H](O)[C@@H](O)Cn1c2nc(=O)[nH]c(=O)c-2cc2ccc(O)cc21)C(=O)O [dehydro-F420-0]
coupled FbiD:FbiA:FbiB assay with Fre/FMNH2, MS/MS [6]: dehydro-F420-0 is a bona fide metabolic intermediate that can be converted to mature F420 by FbiB
coupled HPLC assay, MS/MS [7]: The discovery of dehydro-F420-0 as the product of FbiD:FbiA activity in mycobacteria
